{
  "source": "paper PMC8222276",
  "about": "(Communications Biology, 2021)",
  "key": {"[1]": {"molecular_target": "T1, CGRP receptor (CLR-RAMP1) in RAMP1-HUVECs (Homo sapiens, UniProt O60894+Q16602)", "T1 construct": "biased agonism at the endogenous CLR in a physiological system; the open reading frame of RAMP1 into our HUVEC∆RAMP2 cell line; host or cells: HUVEC-∆RAMP2 (CRISPR-Cas9 RAMP2 knockout pool), lentiviral transduction, blasticidin selection", "T1 sequence (Q16602 23-461)": "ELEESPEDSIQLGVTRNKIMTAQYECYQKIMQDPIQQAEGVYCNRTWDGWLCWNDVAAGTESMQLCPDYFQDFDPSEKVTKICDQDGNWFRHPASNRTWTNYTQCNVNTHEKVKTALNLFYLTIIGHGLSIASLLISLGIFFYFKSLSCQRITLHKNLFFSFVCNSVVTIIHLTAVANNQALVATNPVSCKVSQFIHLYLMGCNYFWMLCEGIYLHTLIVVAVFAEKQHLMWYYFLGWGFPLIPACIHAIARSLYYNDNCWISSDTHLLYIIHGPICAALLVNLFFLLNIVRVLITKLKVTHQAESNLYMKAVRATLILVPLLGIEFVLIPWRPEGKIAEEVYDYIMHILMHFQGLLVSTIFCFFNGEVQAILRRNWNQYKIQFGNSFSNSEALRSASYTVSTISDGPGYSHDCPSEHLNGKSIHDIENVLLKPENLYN", "T1 sequence (O60894 27-148)": "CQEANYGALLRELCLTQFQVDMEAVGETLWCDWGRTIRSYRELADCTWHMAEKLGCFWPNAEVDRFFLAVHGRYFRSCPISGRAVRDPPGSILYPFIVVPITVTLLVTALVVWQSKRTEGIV", "experiment": "mobilisation of Ca2+i in RAMP1-HUVECs", "assay_type": "cell-based", "method": "(§1) Data are analysed using a three-parameter non-linear regression curve or the operational model of receptor agonism. g–h Signalling bias plots were calculated as ∆Log(τ/KA) (g) or ∆∆Log(τ/KA) (h) for each agonist and for each signalling pathway. […] All data represent mean ± SEM for n repeats.\nAll cell lines were plated at 20,000 cells/well on 96-well black clear-bottom plates (Costar, UK) 24 h before the experiment. […] Cells were then washed twice with calcium-free HBSS, then were left in 100 μl calcium-free HBSS for the duration of the assay. […] Data was normalised to the response seen with 10 μM Ionomycin.\nAll sample sizes were determined, and data analysed, in accordance with the guidelines described by Curtis M et al.[65]. All experiments were appropriately controlled using ‘system pathway’ agonists. If any of these pathway controls generated inappropriate responses, then the entire data set was removed from analysis. […] Data analysis for cAMP accumulation, Ca^2+i mobilisation, NO accumulation, pERK1/2 activation, and cell proliferation assays were performed in GraphPad Prism 8.4 (GraphPad Software, San Diego). Data were fitted to obtain concentration–response curves using either the three-parameter logistic equation using to obtain values of Emax and pEC50 or the operational model of agonism. Statistical differences were analysed using one-way ANOVA followed by Dunnett’s post-hoc (for comparisons amongst more than two groups) or unpaired Student’s t test with Welch’s correction (for comparison between two groups)."}, "[2]": {"molecular_target": "T1, CGRP receptor (CLR-RAMP1) in RAMP1-HUVECs", "experiment": "ERK1/2 phosphorylation in RAMP1-HUVECs", "assay_type": "cell-based", "method": "as §1\n(§2) Primary cells were grown in 6 well plates, on the day of the experiment media was replaced with serum free media 4 h prior to cell harvesting. Tyrpsin-EDTA was used to dissociate the cells and they were collected by centrifugation, counted and re-suspended HBSS/BSA (0.1%). Ligands were also diluted in HBSS/BSA. Cells were then plated on 384 well plates in 8 μl aliquots at a density of 20,000 cells/well. Next, ligands were added (4 μl) for 5 min stimulation at room temperature. Cells were then lysed as per to the manufacturer’s instructions with 4 μl of lysis buffer (Cisbio phosphor-ERK1/2 cellular assay kit, Invitrogen, UK) for 30 min shaking at room temperature. The 2 specific antibodies; were pre-mixed in a 1:1 ratio. 4 μl of this was added to each well and the plate incubated for a further 2 h.\nAll sample sizes were determined, and data analysed, in accordance with the guidelines described by Curtis M et al.[65]. All experiments were appropriately controlled using ‘system pathway’ agonists. If any of these pathway controls generated inappropriate responses, then the entire data set was removed from analysis."}, "[3]": {"molecular_target": "T2, CGRP receptor (CLR-RAMP1) in human cardiomyocytes (HCMs) (Homo sapiens, UniProt O60894+Q16602)", "T2 construct": "primary human cardiomyocytes (HCMs) since these cells only expressed CLR and RAMP1; host or cells: primary human cardiomyocytes (HCMs)", "T2 sequence (Q16602 23-461)": "as the sequence (Q16602 23-461) above", "T2 sequence (O60894 27-148)": "as the sequence (O60894 27-148) above", "experiment": "mobilisation of Ca2+i in HCMs", "assay_type": "cell-based", "method": "(§3) Data are analysed using a three-parameter non-linear regression curve or the operational model of receptor agonism. g, h Signalling bias plots were calculated as ∆Log(τ/KA) (g) or ∆∆Log(τ/KA) (h) for each agonist and for each signalling pathway. […] All data represent mean ± SEM for n repeats.\nAll cell lines were plated at 20,000 cells/well on 96-well black clear-bottom plates (Costar, UK) 24 h before the experiment. […] Cells were then washed twice with calcium-free HBSS, then were left in 100 μl calcium-free HBSS for the duration of the assay. In conditions where Gαq/11/14 signalling is inhibited, cells were pre-treated with 100 nM YM-254890 (Alpha Laboratories, UK) (30 min)[22]. All assays were performed using the BD Pathway 855 Bioimaging Systems (BD Biosciences, UK), which dispenses ligands (20 μl) and reads immediately for 2 min. Data was normalised to the response seen with 10 μM Ionomycin.\n(§4) All sample sizes were determined, and data analysed, in accordance with the guidelines described by Curtis M et al.[65]. All experiments were appropriately controlled using ‘system pathway’ agonists. If any of these pathway controls generated inappropriate responses, then the entire data set was removed from analysis. […] Data analysis for cAMP accumulation, Ca^2+i mobilisation, NO accumulation, pERK1/2 activation, and cell proliferation assays were performed in GraphPad Prism 8.4 (GraphPad Software, San Diego). Data were fitted to obtain concentration–response curves using either the three-parameter logistic equation using to obtain values of Emax and pEC50 or the operational model of agonism. Statistical differences were analysed using one-way ANOVA followed by Dunnett’s post-hoc (for comparisons amongst more than two groups) or unpaired Student’s t test with Welch’s correction (for comparison between two groups). To account for the day-to-day variation experienced from the cultured cells, we used the maximal level of cAMP accumulation from cells in response to 100 μM forskolin stimulation was used as a reference, 10 μM ionomycin for Ca^2+i assays, 10 μM phorbol 12-myristate 13-acetate (PMA) for pERK1/2 activation, 10 μM acetylcholine for NO production and 10 μM VEGF for cell proliferation. […] Where appropriate the operational model for receptor agonism[27] was used to obtain efficacy (τ) and equilibrium disassociation constant (KA) values. In both cases, this normalisation removes the variation due to differences in days but retains the variance for control values. The means of individual experiments were combined to generate the curves shown. Having obtained values for τ and KA these were then used to quantify signalling bias as the change in Log(τ/KA)[19],[28]. Error for this composite measure was propagated by applying Eq. 1.1 PooledSEM=(SEMA)^2+(SEMB)^2 Where, SEMA and SEMB are the standard error of measurement A and B."}, "[4]": {"molecular_target": "T2, CGRP receptor (CLR-RAMP1) in human cardiomyocytes (HCMs)", "experiment": "ERK1/2 phosphorylation in HCMs", "assay_type": "cell-based", "method": "as §3, §2, §4"}, "heart": {"tested_on": "heart", "settings": "cited from earlier work"}, "[5]": {"settings": "Ca2+i, RAMP1-HUVEC, operational model, mean ± SEM"}, "[6]": {"settings": "pERK1/2, RAMP1-HUVEC, operational model, mean ± SEM"}, "[7]": {"settings": "Ca2+i, HCM, operational model, mean ± SEM"}, "[8]": {"settings": "pERK1/2, HCM, operational model, mean ± SEM"}},
  "data": [
    {"smiles": "CSCC[C@H](NC(=O)[C@H](CC(C)C)NC(=O)[C@H](CCC(N)=O)NC(=O)[C@H](Cc1c[nH]c2ccccc12)NC(=O)[C@H](CC(C)C)NC(=O)[C@H](CCCNC(=N)N)NC(=O)[C@H](Cc1c[nH]cn1)NC(=O)[C@H](CO)NC(=O)[C@H](CC(C)C)NC(=O)[C@H](CC(N)=O)NC(=O)[C@H](CCC(N)=O)NC(=O)[C@@H](NC(=O)[C@H](CCC(N)=O)NC(=O)[C@@H]1CSSC[C@H](NC(=O)CNC(=O)[C@@H](NC(=O)[C@H](CCCNC(=N)N)NC(=O)[C@H](CC(C)C)NC(=O)[C@H](CC(C)C)NC(=O)[C@H](CCC(N)=O)NC(=O)[C@H](C)NC(=O)[C@H](CCC(N)=O)NC(=O)[C@@H](N)[C@@H](C)O)C(C)C)C(=O)N[C@@H](C(C)C)C(=O)N[C@@H](CC(C)C)C(=O)NCC(=O)N[C@@H]([C@@H](C)O)C(=O)N1)C(C)C)C(=O)NCC(=O)N1CCC[C@H]1C(=O)N[C@@H](C)C(=O)NCC(=O)N[C@@H](CCCNC(=N)N)C(=O)N[C@@H](CCC(N)=O)C(=O)N[C@@H](CC(=O)O)C(=O)N[C@@H](CO)C(=O)N[C@@H](C)C(=O)N1CCC[C@H]1C(=O)N[C@H](C(=O)N[C@@H](CC(=O)O)C(=O)N1CCC[C@H]1C(=O)N[C@@H](CO)C(=O)N[C@@H](CO)C(=O)N1CCC[C@H]1C(=O)N[C@@H](Cc1c[nH]cn1)C(=O)N[C@@H](CO)C(=O)N[C@@H](Cc1ccc(O)cc1)C(N)=O)C(C)C", "note": "[AM2, adrenomedullin 2]", "values": [
      {"measurement": "Emax", "setting": "[1]", "result": "41 ± 2.26", "unit": "%"},
      {"measurement": "Transducer coefficient Log(τ/KA)", "setting": "[1]; Ca2+i, RAMP1-HUVEC, calculated from Table S2", "result": "5.46±0.19"},
      {"measurement": "logτ", "setting": "[1]; [5]", "result": "-0.18±0.06"},
      {"measurement": "pKA", "setting": "[1]; [5]", "result": "5.64±0.18"},
      {"measurement": "Emax", "setting": "[2]", "result": "45.4 ± 2.89", "unit": "%"},
      {"measurement": "Transducer coefficient Log(τ/KA)", "setting": "[2]; pERK1/2, RAMP1-HUVEC, calculated from Table S2", "result": "6.50±0.15"},
      {"measurement": "logτ", "setting": "[2]; [6]", "result": "-0.06±0.05"},
      {"measurement": "pKA", "setting": "[2]; [6]", "result": "6.56±0.14"},
      {"measurement": "Emax", "setting": "[3]", "result": "36.5 ± 2.31", "unit": "%"},
      {"measurement": "Transducer coefficient Log(τ/KA)", "setting": "[3]; Ca2+i, HCM, calculated from Table S2", "result": "7.61±0.35"},
      {"measurement": "logτ", "setting": "[3]; [7]", "result": "-0.30±0.05"},
      {"measurement": "pKA", "setting": "[3]; [7]", "result": "7.91±0.35"},
      {"measurement": "Emax", "setting": "[4]", "result": "40.4 ± 4.17", "unit": "%"},
      {"measurement": "Transducer coefficient Log(τ/KA)", "setting": "[4]; pERK1/2, HCM, calculated from Table S2", "result": "5.32±0.20"},
      {"measurement": "logτ", "setting": "[4]; [8]", "result": "-0.20±0.08"},
      {"measurement": "pKA", "setting": "[4]; [8]", "result": "5.52±0.18"},
      {"measurement": "effect of protein kinase inhibitors on contraction effect", "setting": "heart", "result": "blocked by both inhibitors of both protein kinase A and C"}
    ]},
    {"smiles": "CC[C@H](C)[C@H](NC(=O)[C@H](CCC(N)=O)NC(=O)[C@H](Cc1c[nH]cn1)NC(=O)[C@H](C)NC(=O)[C@H](CC(C)C)NC(=O)[C@H](CCCCN)NC(=O)[C@H](CCC(N)=O)NC(=O)[C@@H](NC(=O)[C@@H](NC(=O)[C@@H]1CSSC[C@H](NC(=O)CNC(=O)[C@H](Cc2ccccc2)NC(=O)[C@H](CO)NC(=O)[C@H](CCCNC(=N)N)NC(=O)[C@H](CC(C)C)NC(=O)CNC(=O)[C@H](CCC(N)=O)NC(=O)[C@H](Cc2ccccc2)NC(=O)[C@H](CC(N)=O)NC(=O)[C@H](CC(N)=O)NC(=O)[C@H](CCSC)NC(=O)[C@H](CO)NC(=O)[C@H](CCC(N)=O)NC(=O)[C@H](CCCNC(=N)N)NC(=O)[C@@H](N)Cc2ccc(O)cc2)C(=O)N[C@@H](CCCNC(=N)N)C(=O)N[C@@H](Cc2ccccc2)C(=O)NCC(=O)N[C@@H]([C@@H](C)O)C(=O)N1)[C@@H](C)O)C(C)C)C(=O)N[C@@H](Cc1ccc(O)cc1)C(=O)N[C@@H](CCC(N)=O)C(=O)N[C@@H](Cc1ccccc1)C(=O)N[C@H](C(=O)N[C@@H](CC(=O)O)C(=O)N[C@@H](CCCCN)C(=O)N[C@@H](CC(=O)O)C(=O)N[C@@H](CCCCN)C(=O)N[C@@H](CC(=O)O)C(=O)N[C@@H](CC(N)=O)C(=O)N[C@H](C(=O)N[C@@H](C)C(=O)N1CCC[C@H]1C(=O)N[C@@H](CCCNC(=N)N)C(=O)N[C@@H](CO)C(=O)N[C@@H](CCCCN)C(=O)N[C@H](C(=O)N[C@@H](CO)C(=O)N1CCC[C@H]1C(=O)N[C@@H](CCC(N)=O)C(=O)NCC(=O)N[C@@H](Cc1ccc(O)cc1)C(N)=O)[C@@H](C)CC)C(C)C)[C@@H](C)O", "note": "[AM, adrenomedullin]", "values": [
      {"measurement": "Emax", "setting": "[1]; Ca2+i, RAMP1-HUVEC, relative to 10 μM ionomycin, mean ± SEM, read-out: Emax", "result": "44.1 ± 1.42", "unit": "%"},
      {"measurement": "Emax", "setting": "[2]; pERK1/2, RAMP1-HUVEC, 5 min, relative to 10 μM PMA, mean ± SEM, read-out: Emax", "result": "47.6 ± 1.48", "unit": "%"},
      {"measurement": "Emax", "setting": "[3]; Ca2+i, HCM, relative to 10 μM ionomycin, mean ± SEM, read-out: Emax", "result": "58.12 ± 0.15", "unit": "%"},
      {"measurement": "Emax", "setting": "[4]; pERK1/2, HCM, 5 min, relative to 10 μM PMA, mean ± SEM, read-out: Emax", "result": "40.1 ± 2.02", "unit": "%"}
    ]}
  ]
}
